# Reference: US10821120B2, “Method for controlling neuroinflammation” (N.V. NUTRICIA, priority 2016, dated 2020)
# Key:
# [1] = system: LPS-stimulated BV-2 cells; test: Griess assay (nitric oxide release) from LPS-activated BV-2 microglia; assay type: cell-based, mouse; settings: vitamin D 1 μg/ml, DHA 20 μM; for NO release as percentage of the NO released by cells stimulated only with LPS: Example 1, high non-toxic concentrations: vitamin A 1.75 μM, EPA 20 μM, 24 h pretreatment, then 24 h with LPS 50 ng/ml plus same nutrients, LPS control = 100%; for effect on LPS-induced NO release (in words): Example 1 concentrations: vitamin B6 29 μM, folic acid 24 μM, vitamin B12 0.2 μM, vitamin A 1.75 μM, versus LPS control
# Description: (§1) BV-2 cell cultures: BV-2 cells were obtained from IRCCS (Azienda Ospedaliera Universitaria San Martino—IST Istituto Nazionale per la Ricerca sul Cancro, Genova, Italy). BV-2 cell lines are immortalized cell lines derived from C57bl/6 mouse. These are considered to closely resemble the physiology of primary microglia cells and form a well-established model for investigation in vitro (Henn et al., ALTEX, 2009, 26, 83-94). Lipopolysaccharide (LPS), an endotoxin derived from the cell wall of gram negative bacteria, is the most widely used agent to activate immune cells. Cells were cultured in Dulbecco's Modified Eagle Medium (DMEM, Gibco) supplemented with 10% of heat-inactivated fetal bovine serum (Invitrogen), 10,000 units/ml penicillin (Gibco), 10,000 μg/ml streptomycin (Gibco) and 200 mM L-glutamine (Gibco) and maintained at 37° C. and 5% CO2. Twenty-four hours before the experiment, cells were plated on 96 well plates (Corning) at a cell density of approximately 20,000 cells/well and maintained in DMEM supplemented with 2% fetal bovine serum, 10,000 units/ml penicillin, 10,000 μg/ml streptomycin and 200 mM L-glutamine, for the duration of the experiment.
# (§2) Cell viability: Cell proliferation and viability were assessed with 2,3-bis(2-methoxy-4-nitro-5-sulfophenyl)-2H-tetrazolium-5-carboxanilide inner salt (XTT, Sigma) at a concentration of 1 mg/ml. Phenazine methosulfate (PMS, Sigma) at a concentration of 200 mg/ml was added as an electron coupling reagent. The XTT/PMS solution in sterile water (100 μl) was added to each well. After 2 h, the absorbance was measured at 450 nm (and 690 nm as a reference). The absorbance was corrected for the number of cells. The viability test was repeated for each experiment as a within plate control.
# Griess assay (nitric oxide release): Cells were treated for 24 h with different combinations of nutrients. This treatment was followed by exchanging the medium for fresh medium with LPS (50 ng/ml) combined with the same nutrients. After incubation for 24 h, media were collected for measurement of NO release. The stable product of NO released by the BV-2 cells is NO2^−. The concentration of NO2^− was measured with a Griess assay Kit (Promega) according to the manufacturer's instructions. Data were corrected for cell viability (the viability of untreated control cells represented 100% of viability). Data are represented as percentage of the NO released by cells stimulated only with LPS. To assess variability between the tests, data from the treatment with LPS alone were pooled and an average release between experiments was calculated for NO. For treatment with LPS alone, the NO release is represented as the percentage of the average release between experiments.
# (§3) Statistical analysis: All experiments were performed at least in triplicate. The data are presented as dots representing means and bars representing standard error mean (SEM). Due to the small sample size, non-parametric statistical tests were used. Data were analyzed with the Kruskal-Wallis H test and if the statistical significance was reached, Mann Whithey U test with Bonferroni-Holm post-hoc correction to allow multiple comparisons was performed. A difference was considered statistically significant when the probability (p) was <0.05.
# (§4) BV-2 cells were pretreated for 24 h with different nutrients: (I) vitamin A (1.75 μM); (II) vitamin D (1 μg/ml); (III) DHA (20 μM); (IV) EPA (20 μM); (V) vitamin B6 (29 μM, including 19 μM already present in the culture medium); (VI) folic acid (24 μM, including 9 μM already present in the culture medium); (VII) vitamin B12 (0.2 μM). This was followed by 24 h incubation with LPS (50 ng/ml) combined with the same nutrients. Media were collected for measurement of NO release with the Griess assay (FIG. 1A) and IL-6 release with ELISA (FIG. 1B). NO and IL-6 levels are presented as the percentage of the concentration produced by cells treated with LPS alone (LPS control, dashed line).
# [2] = system: LPS-stimulated BV-2 cells; test: ELISA (IL-6) release from LPS-activated BV-2 microglia; assay type: cell-based, mouse; settings: vitamin D 1 μg/ml, DHA 20 μM; for IL-6 release as percentage of the IL-6 released by cells stimulated only with LPS: Example 1, high non-toxic concentrations: vitamin A 1.75 μM, EPA 20 μM, 24 h pretreatment, then 24 h with LPS 50 ng/ml plus same nutrients, LPS control = 100%; for effect on LPS-induced IL-6 release (in words): Example 1 concentrations: vitamin B6 29 μM, folic acid 24 μM, vitamin B12 0.2 μM, vitamin A 1.75 μM, versus LPS control
# Description: as §1, §2
# ELISA (IL-6): Cells were treated for 24 h with different combinations of nutrients. Subsequently, the medium was removed and cells were incubated for 24 h in fresh medium with LPS (50 ng/ml) combined with the same nutrients. Media were collected for measurement of IL-6 release. Collected samples were stored at −80° C. until further analysis. The cytokine levels were assessed using ELISA MAX™ Deluxe from Biolegend according to the manufacturer's protocol. Data were corrected for cell viability. Data are represented as percentage of the IL-6 released by cells stimulated only with LPS. To assess variability between the tests, data from the treatment with LPS alone were pooled and an average release between experiments was calculated for IL-6. For LPS alone treatment the IL-6 release is represented as the percentage of the average release between experiments.
# as §3
# as §4, with “line). All graphs represent the results from 4 independent experiments (mean±SEM).” for “line).”
Molecule,NO release as percentage of the NO released by cells stimulated only with LPS [1] [%],IL-6 release as percentage of the IL-6 released by cells stimulated only with LPS [2] [%],effect on LPS-induced NO release (in words) [1],effect on LPS-induced IL-6 release (in words) [2]
"CC/C=C\C/C=C\C/C=C\C/C=C\C/C=C\C/C=C\CCC(=O)O [DHA, cis-4,7,10,13,16,19-docosahexaenoic acid]",68,68,–,–
"CC/C=C\C/C=C\C/C=C\C/C=C\C/C=C\CCCC(=O)O [EPA, cis-5,8,11,14,17-eicosapentaenoic acid]",80,70,–,–
N[C@@H](CS)C(=O)O [L-cysteine],–,–,did not cause any significant effect,did not cause any significant effects
N[C@@H](Cc1c[nH]c2ccccc12)C(=O)O [L-tryptophan],–,–,did not cause any significant effect,did not cause any significant effects
"Cc1ncc(CO)c(CO)c1O.Cl [Vitamin B6, vitamin B6]",–,–,did not cause any significant effect,did not cause any significant effects
"Nc1nc2ncc(CNc3ccc(C(=O)N[C@@H](CCC(=O)O)C(=O)O)cc3)nc2c(=O)[nH]1 [Vitamin B9, folic acid]",–,–,did not cause any significant effect,did not cause any significant effects
"C=C1CC[C@H](O)C/C1=C/C=C1\CCC[C@]2(C)[C@@H]([C@H](C)CCCC(C)C)CC[C@@H]12 [Vitamin D, vitamin D3]",43,43,–,–
vitamin A,39,42,–,–
vitamin B12,–,–,did not cause any significant effect,did not cause any significant effects
